# Experimental data: patent US20170007561A1, “CONTEMPORANEOUS, HETEROGENEOUSLY-ORIENTED, MULTI-TARGETED THERAPEUTIC MODIFICATION AND/OR MODULATION OF DISEASE BY ADMINISTRATION OF SULFUR-CONTAINING, AMINO ACID-SPECIFIC SMALL MOLECULES” (BioNumerik Pharmaceuticals, Inc., priority 2014, published 2017)
# Read-outs that look alike come from different tables or passages of the source.
# T1: glutathione reductase (GR) (Homo sapiens, UniProt P00390)
# T1 sequence (P00390 44-522): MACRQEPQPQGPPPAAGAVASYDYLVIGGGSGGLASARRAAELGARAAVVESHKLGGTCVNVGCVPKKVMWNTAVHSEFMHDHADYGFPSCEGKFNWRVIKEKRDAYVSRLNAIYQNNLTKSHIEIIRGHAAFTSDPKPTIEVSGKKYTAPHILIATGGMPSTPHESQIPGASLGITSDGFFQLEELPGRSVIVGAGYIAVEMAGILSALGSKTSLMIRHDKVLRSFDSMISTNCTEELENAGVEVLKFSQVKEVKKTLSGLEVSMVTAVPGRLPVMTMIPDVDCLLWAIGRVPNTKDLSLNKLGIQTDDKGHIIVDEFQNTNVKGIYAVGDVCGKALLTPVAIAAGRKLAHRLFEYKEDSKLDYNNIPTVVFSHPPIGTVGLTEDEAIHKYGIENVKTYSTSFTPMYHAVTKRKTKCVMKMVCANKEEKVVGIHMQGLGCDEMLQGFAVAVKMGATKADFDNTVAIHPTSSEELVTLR
# T2: bovine TrxR (Bos taurus, UniProt O62768)
# T2 construct: purchased American Diagnostica
# T2 sequence (O62768 1-499): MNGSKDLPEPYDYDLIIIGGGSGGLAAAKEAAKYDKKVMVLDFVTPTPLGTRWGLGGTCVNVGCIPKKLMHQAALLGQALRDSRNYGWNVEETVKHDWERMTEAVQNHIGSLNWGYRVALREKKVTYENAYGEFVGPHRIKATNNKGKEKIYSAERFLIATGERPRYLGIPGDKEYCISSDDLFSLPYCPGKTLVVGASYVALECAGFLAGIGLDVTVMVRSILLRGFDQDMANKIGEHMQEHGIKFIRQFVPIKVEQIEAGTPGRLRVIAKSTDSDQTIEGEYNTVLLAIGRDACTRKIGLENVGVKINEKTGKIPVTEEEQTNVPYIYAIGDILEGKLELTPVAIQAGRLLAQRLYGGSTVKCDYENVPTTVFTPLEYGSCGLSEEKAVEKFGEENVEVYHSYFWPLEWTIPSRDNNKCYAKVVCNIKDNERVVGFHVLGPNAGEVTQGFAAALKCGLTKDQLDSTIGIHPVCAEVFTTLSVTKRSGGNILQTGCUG
# Columns and labels:
# [1] = system: bovine brain microtubule protein (α-/β-tubulin); assay: Microtubule protein polymerization assay (OD350); assay type: biochemical; conditions: for effect on microtubule protein polymerization: sodium chloride 32 mM control; for protection against monoaquocisplatin-induced loss of microtubule protein polymerization: preincubated with monoaquocisplatin (36 μM), mesna or cysteine 200 μM
# [2] = system: mammalian thioredoxin reductase (TrxR); conditions: cited from earlier work
# [3] = target: T790M EGFR kinase (Homo sapiens, UniProt P00533, T790M); assay: EGFR kinase assay (ADP-glo, polyGT substrate), T790M mutant; assay type: biochemical; conditions: for IC50: read-out: IC50, inhibition of T790M EGFR kinase; for effect on Erlotinib inhibition of T790M EGFR kinase activity: heteroconjugate in combination with Erlotinib, 10 μM and/or 100 μM ATP
# [4] = target: ErbB-1 (Homo sapiens, UniProt P00533); conditions: cited from earlier work
# [5] = target: ErbB-2 (Homo sapiens, UniProt P04626); set-up: key: the “+” and “−” symbols signify the ability and inability to activate each of the ErbB receptors, respectively; the “+” and “−” symbols signify the ability and inability to activate each of the ErbB receptors, respectively; conditions: cited from earlier work
# [6] = target: ErbB-4 (Homo sapiens, UniProt Q15303); set-up: key: the “+” and “−” symbols signify the ability and inability to activate each of the ErbB receptors, respectively; the “+” and “−” symbols signify the ability and inability to activate each of the ErbB receptors, respectively; conditions: cited from earlier work
# Chain of ErbB-4 (Q15303 26-1308, species assumed): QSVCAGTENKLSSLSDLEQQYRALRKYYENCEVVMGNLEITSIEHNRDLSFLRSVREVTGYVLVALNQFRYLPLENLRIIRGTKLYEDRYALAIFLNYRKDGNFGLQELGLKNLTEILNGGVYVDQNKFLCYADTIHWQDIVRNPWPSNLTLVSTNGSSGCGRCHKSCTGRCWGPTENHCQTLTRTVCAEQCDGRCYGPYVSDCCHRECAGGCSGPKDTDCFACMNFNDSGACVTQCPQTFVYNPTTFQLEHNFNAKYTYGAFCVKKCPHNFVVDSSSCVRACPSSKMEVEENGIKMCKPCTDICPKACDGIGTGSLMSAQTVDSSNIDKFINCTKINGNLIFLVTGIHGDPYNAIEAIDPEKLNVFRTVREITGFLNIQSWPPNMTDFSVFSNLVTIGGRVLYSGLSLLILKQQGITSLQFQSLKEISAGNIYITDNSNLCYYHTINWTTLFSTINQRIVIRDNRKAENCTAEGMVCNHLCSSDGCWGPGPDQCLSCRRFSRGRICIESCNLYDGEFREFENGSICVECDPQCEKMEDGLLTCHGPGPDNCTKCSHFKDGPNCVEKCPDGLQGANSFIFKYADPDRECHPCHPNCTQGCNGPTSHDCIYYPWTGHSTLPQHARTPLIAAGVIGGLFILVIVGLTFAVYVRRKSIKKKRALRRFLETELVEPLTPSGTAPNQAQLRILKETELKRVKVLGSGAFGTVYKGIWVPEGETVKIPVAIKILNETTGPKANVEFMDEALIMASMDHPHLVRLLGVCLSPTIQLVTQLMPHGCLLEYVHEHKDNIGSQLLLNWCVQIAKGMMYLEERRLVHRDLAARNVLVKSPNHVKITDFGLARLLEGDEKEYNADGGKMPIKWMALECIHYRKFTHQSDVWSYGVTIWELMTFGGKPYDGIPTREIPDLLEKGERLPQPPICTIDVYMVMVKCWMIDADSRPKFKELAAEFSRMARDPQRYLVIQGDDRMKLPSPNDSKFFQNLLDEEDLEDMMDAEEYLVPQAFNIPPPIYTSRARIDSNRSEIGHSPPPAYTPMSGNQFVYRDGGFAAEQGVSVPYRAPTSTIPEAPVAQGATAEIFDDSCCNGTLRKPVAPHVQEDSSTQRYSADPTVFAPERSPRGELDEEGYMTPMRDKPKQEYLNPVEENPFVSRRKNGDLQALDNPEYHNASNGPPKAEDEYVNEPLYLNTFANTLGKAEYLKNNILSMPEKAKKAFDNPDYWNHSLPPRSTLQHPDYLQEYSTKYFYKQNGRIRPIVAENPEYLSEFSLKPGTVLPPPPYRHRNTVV
# [7] = target: ErbB-3 (Homo sapiens, UniProt P21860); set-up: key: the “+” and “−” symbols signify the ability and inability to activate each of the ErbB receptors, respectively; the “+” and “−” symbols signify the ability and inability to activate each of the ErbB receptors, respectively; conditions: cited from earlier work
# [8] = target: T1, glutathione reductase (GR); conditions: cited from earlier work
# [9] = single oral dose of 100 mg to healthy volunteers; cited from earlier work
# [10] = target: T2, bovine TrxR; assay: TrxR NADPH oxidation assay without Trx (Reaction A); assay type: biochemical; conditions: TrxR alone + NADPH, no Trx
molecule,measurement,setting,value
"N.N.O.[Cl][Pt+] [monoaquocisplatin, reference compound]",effect of extended exposure on microtubule protein polymerization,[1]; monoaquocisplatin 36 μM,loss of microtubule protein's ability to polymerize
"N[C@@H](CS)C(=O)O [cysteine, reference compound]",effect alone on microtubule protein polymerization,[1]; in the absence of monoaquocisplatin,neither mesna nor cysteine alone (in the absence of monoaquocisplatin) had any effect
CC1=C(/C=C/C(C)=C/C=C/C(C)=C\C(=O)O)C(C)(C)CCC1 [13-cis-retinoic acid],Inhibition of TrxR,[2],irreversible inhibition of TrxR
NC(CCC(=O)NC(CSSCCS(=O)(=O)O)C(=O)NCC(=O)O)C(=O)O (stereo not shown) [Mesna-Glutathione],IC50,[3]; 10 μM ATP,1280 ± 290 µM
same,IC50,[3]; 100 μM ATP,1170 ± 10 µM
same,effect on Erlotinib inhibition of T790M EGFR kinase activity,[3],effectively potentiated
NC(CSSCCS(=O)(=O)O)C(=O)NC(CCC(=O)O)C(=O)O (stereo not shown) [Mesna-Cysteinylglutamate],IC50,[3]; 10 μM ATP,1090 ± 190 µM
same,IC50,[3]; 100 μM ATP,1050 ± 80 µM
same,effect on Erlotinib inhibition of T790M EGFR kinase activity,[3],effectively potentiated
epiregulin: growth factor ligand of ErbB receptors,ability to activate ErbB-1,[4],+
same,ability to activate ErbB-2,[5],−
same,ability to activate ErbB-4,[6],+
same,ability to activate ErbB-3,[7],−
N.N.[Cl][Pt][Cl] [cisplatin],Inhibition of GR,[8],not GR
same,Inhibition of TrxR,[2],irreversibly inhibited TrxR
O=C1[O][Pt]2([NH][C@@H]3CCCC[C@H]3[NH]2)[O]C1=O [oxaliplatin],Inhibition of GR,[8],not GR
same,Inhibition of TrxR,[2],irreversibly inhibited TrxR
neuregulin 1,ability to activate ErbB-1,[4],−
same,ability to activate ErbB-2,[5],−
same,ability to activate ErbB-4,[6],+
same,ability to activate ErbB-3,[7],+
O=P1(N(CCCl)CCCl)NCCCO1 (stereo not shown) [cyclophosphamide],Inhibition of GR,[8],not GR
same,Inhibition of TrxR,[2],irreversibly inhibited TrxR in a concentration- and time-dependent manner
"C#Cc1cccc(Nc2ncnc3cc(OCCOC)c(OCCOC)cc23)c1 [Erlotinib, reference compound]",Cmax,[9],1390 ng/mL
N.N.O=C([O-])C1(C(=O)[O-])CCC1.[Pt+2] [carboplatin],Inhibition of GR,[8],could not inhibit either TrxR or GR
same,Inhibition of TrxR,[2],could not inhibit either TrxR or GR
amphiregulin: growth factor ligand of ErbB receptors,ability to activate ErbB-1,[4],+
same,ability to activate ErbB-2,[5],−
same,ability to activate ErbB-4,[6],−
same,ability to activate ErbB-3,[7],−
TGF-α: growth factor ligand of ErbB receptors,ability to activate ErbB-2,[5],−
same,ability to activate ErbB-4,[6],−
same,ability to activate ErbB-3,[7],−
N.N.[Cl][Pt+2][Cl] [transplatin],Inhibition of GR,[8],not GR
same,Inhibition of TrxR,[2],irreversibly inhibited TrxR
N[C@@H](Cc1ccc(N(CCCl)CCCl)cc1)C(=O)O [melphalan],Inhibition of GR,[8],not GR
same,Inhibition of TrxR,[2],irreversibly inhibited TrxR in a concentration- and time-dependent manner
Insulin: positive control disulfide substrate of Trx [reference compound],"NADPH Oxidation, Reaction A",[10]; insulin 86 μM,0.3 ± .03 nmol/min/mL
O=P1(NCCCl)OCCCN1CCCl (stereo not shown) [ifosfamide],Inhibition of TrxR,[2],inhibited TrxR
"NC(CSSCCS(=O)(=O)O)C(=O)NCC(=O)O (stereo not shown) [MSSCG, mesna-cysteinyl glycine disulfide]","NADPH Oxidation, Reaction A",[10]; disulfide 0.5 mM,0.2 ± 0.04 nmol/min/mL
O=C(O)CCCc1ccc(N(CCCl)CCCl)cc1 [chlorambucil],Inhibition of GR,[8],not GR
same,Inhibition of TrxR,[2],irreversibly inhibited TrxR in a concentration- and time-dependent manner
"NC(CSSCCS(=O)(=O)O)C(=O)NC(CCC(=O)O)C(=O)O (stereo not shown) [MSSCE, mesna-cysteinyl glutamate disulfide]","NADPH Oxidation, Reaction A",[10]; disulfide 0.5 mM,0.3 ± 0.02 nmol/min/mL
CS(=O)(=O)OCCCCOS(C)(=O)=O [busulfan],Inhibition of GR,[8],not GR
same,Inhibition of TrxR,[2],irreversibly inhibited TrxR in a concentration- and time-dependent manner
[Cl-].[Na+] [sodium chloride],effect on microtubule protein polymerization,[1],did not inhibit
same,effect on microtubule protein polymerization,[1]; listed as NaCl,no effect
NC(CSSCCS(=O)(=O)O)C(=O)NCC(=O)O (stereo not shown) [Mesna-Cysteinylglycine],IC50,[3]; 10 μM ATP,510 ± 10 µM
same,IC50,[3]; 100 μM ATP,410 ± 50 µM
same,effect on Erlotinib inhibition of T790M EGFR kinase activity,[3],effectively potentiated
"NC(=O)CC[C@H](N)C(=O)O [glutamine, reference compound]",protection against monoaquocisplatin-induced loss of microtubule protein polymerization,[1],not seen
O=NN(CCCl)C(=O)NCCCl [carmustine],Inhibition of GR,[8],can inhibit both GR and Trx
same,Inhibition of TrxR,[2],can inhibit both GR and Trx
"N[C@@H](CCC(=O)O)C(=O)O [glutamate, reference compound]",protection against monoaquocisplatin-induced loss of microtubule protein polymerization,[1],not seen
HB-EGF: growth factor ligand of ErbB receptors,ability to activate ErbB-1,[4],+
same,ability to activate ErbB-2,[5],−
same,ability to activate ErbB-4,[6],+
same,ability to activate ErbB-3,[7],−
COc1cccc2c1C(=O)c1c(O)c3c(c(O)c1C2=O)C[C@@](O)(C(C)=O)C[C@@H]3O[C@H]1C[C@H](N)[C@H](O)[C@H](C)O1 [daunorubicin],Inhibition of TrxR,[2],not inhibitors of TrxR
NC(CSSCCS(=O)(=O)O)C(=O)O (stereo not shown) [Mesna-Cysteine],IC50,[3]; 10 μM ATP,3760 ± 260 µM
same,IC50,[3]; 100 μM ATP,3030 ± 280 µM
same,effect on Erlotinib inhibition of T790M EGFR kinase activity,[3],effectively potentiated
EGF: growth factor ligand of ErbB receptors,ability to activate ErbB-2,[5],−
same,ability to activate ErbB-4,[6],−
same,ability to activate ErbB-3,[7],−
betacellulin: growth factor ligand of ErbB receptors,ability to activate ErbB-1,[4],+
same,ability to activate ErbB-2,[5],−
same,ability to activate ErbB-4,[6],+
same,ability to activate ErbB-3,[7],−
"epigen: growth factor ligand of ErbB receptors (protein, UniProt Q6UW88 23-154, looked up) Epigen: AAVTVTPPITAQQGNWTVNKTEADNIEGPIALKFSHLCLEDHNSYCINGACAFHHELEKAICRCFTGYTGERCEHLTLTSYAVDSYEKYIAIGIGVGLLLSGFLVIFYCYIRKRCLKLKSPYNVCSGERRPL",ability to activate ErbB-1,[4],+
same,ability to activate ErbB-2,[5],−
same,ability to activate ErbB-4,[6],−
same,ability to activate ErbB-3,[7],−
